Test results published in US20110251379A1, “COMPOUNDS USEFUL FOR TREATING NEURODEGENERATIVE DISORDERS” (Satori Pharmaceuticals, Inc., priority 2010, published 2011).
Like-named read-outs stand apart in the source and are kept apart here.

Key:
Format in all cases: cell-based
[1] = tested on: Aβ-38; assay: MSD Human (6E10) Ab 3-PLEX elisa, conditioned media of 2B7 cells: Aβ-38; conditions: Homo sapiens; for inhibition at 20 µM: Aβ-38, 20 μM
Summary of the method: (§1)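 Confluent 2B7 cells were treated with compound serial dilutions (1% DMSO final) for 5 hours at 37° C. Conditioned media, diluted 1:1 in blocking buffer, was incubated with detection antibody overnight at 4 degrees C or 2 hours at room temp.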

[2] = tested on: Aβ-40; assay: MSD Human (6E10) Ab 3-PLEX elisa, conditioned media of 2B7 cells: Aβ-40; conditions: Homo sapiens; for inhibition at 20 µM: Aβ-40, 20 μM; for IC50: Aβ-40 (superscript b), read-out: 50% reduction value
Summary of the method: as §1

[3] = tested on: Aβ-42; assay: MSD Human (6E10) Ab 3-PLEX elisa, conditioned media of 2B7 cells: Aβ-42; conditions: Homo sapiens; for IC50: Aβ-42 (superscript c); for inhibition at 20 µM: Aβ-42, 20 μM
Summary of the method: as §1

SMILES	inhibition at 20 µM [1]	inhibition at 20 µM [2]	inhibition at 20 µM [3]	other results
C[C@@H]1CC(CN2CCC[C@H]2C(=O)O)OC2[C@H]1[C@@]1(C)CC[C@@]34C[C@@]35CC[C@H](O[C@H]3CN(C(=O)CC6CC6)CCO3)C(C)(C)[C@@H]5CCC4[C@]1(C)[C@H]2O (stereo partly shown)	–	–	–	inhibition at 100 µM ([1]; Aβ-38, 100 μM): 25 to 75%; inhibition at 100 µM ([2]; Aβ-40, 100 μM): 25 to 75%; IC50 ([3]; read-out: IC50 range): > 10 µM
CC(=O)NCCC1C[C@@H](C)[C@H]2C(O1)[C@H](O)[C@@]1(C)C3CC[C@H]4C(C)(C)[C@@H](O)CC[C@@]45C[C@@]35CC[C@]21C (stereo partly shown)	25 to 75%	< 25%	–	IC50 ([3]; read-out: 50% reduction value): 1 to 10 µM
COC(=O)OCC1C[C@@H](C)[C@H]2C(O1)[C@H](O)[C@@]1(C)C3CC[C@H]4C(C)(C)[C@@H](O)CC[C@@]45C[C@@]35CC[C@]21C (stereo partly shown)	25 to 75%	25 to 75%	25 to 75%	–
C[C@@H]1CC(COC(=O)N(C)C)OC2[C@H]1[C@@]1(C)CC[C@@]34C[C@@]35CC[C@H](O)C(C)(C)[C@@H]5CCC4[C@]1(C)[C@H]2O (stereo partly shown)	–	25 to 75%	25 to 75%	inhibition at 4 µM ([1]; Aβ-38, 4 μM): 25 to 75%; IC50 [2]: > 10 µM
C[C@@H]1CC(C(=O)O)OC2C1[C@@]1(C)CC[C@@]34C[C@@]35CC[C@H](OC3CN(C6COC6)CCO3)C(C)(C)[C@@H]5CC[C@H]4[C@]1(C)[C@H]2O (stereo partly shown)	< 25%	< 25%	< 25%	–
C[C@@H]1CC(CNC(C(=O)O)C(F)(F)F)OC2[C@H]1[C@@]1(C)CC[C@@]34C[C@@]35CC[C@H](O[C@H]3CN(C6COC6)CCO3)C(C)(C)[C@@H]5CCC4[C@]1(C)[C@H]2O (stereo partly shown)	< 25%	25 to 75%	25 to 75%	–
CC(=O)OCC1C[C@@H](C)[C@H]2C(O1)[C@H](O)[C@@]1(C)C3CC[C@H]4C(C)(C)[C@@H](O[C@H]5CN(C6COC6)CCO5)CC[C@@]45C[C@@]35CC[C@]21C (stereo partly shown)	25 to 75%	< 25%	< 25%	–
C[C@@H]1CC(COC(=O)C2CCOCC2)OC2[C@H]1[C@@]1(C)CC[C@@]34C[C@@]35CC[C@H](O[C@H]3CN(C6COC6)CCO3)C(C)(C)[C@@H]5CCC4[C@]1(C)[C@H]2O (stereo partly shown)	25 to 75%	25 to 75%	25 to 75%	–
C[C@@H]1C[C@](C)(CO)OC2[C@H]1[C@@]1(C)CC[C@@]34C[C@@]35CC[C@H](O)C(C)(C)[C@@H]5CCC4[C@]1(C)[C@H]2O (stereo partly shown)	25 to 75%	< 25%	< 25%	–
COC(=O)O[C@H](C(C)C)C1C[C@@H](C)[C@H]2C(O1)[C@H](O)[C@@]1(C)C3CC[C@H]4C(C)(C)[C@@H](O)CC[C@@]45C[C@@]35CC[C@]21C (stereo partly shown)	25 to 75%	25 to 75%	25 to 75%	–
CCOC(=O)CO[C@@H]([C@H]1C[C@@H](C)[C@H]2[C@H](O1)[C@H](O)[C@@]1(C)C3CC[C@H]4C(C)(C)[C@@H](O[C@H]5CN(C6COC6)CCO5)CC[C@@]45C[C@@]35CC[C@]21C)C(C)(C)O (stereo partly shown)	25 to 75%	–	25 to 75%	IC50 [2]: > 10 µM
CNC(=O)O[C@@H]([C@H]1C[C@@H](C)[C@H]2[C@H](O1)[C@H](O)[C@@]1(C)C3CC[C@H]4C(C)(C)[C@@H](O)CC[C@@]45C[C@@]35CC[C@]21C)C(C)(C)O (stereo partly shown)	25 to 75%	25 to 75%	25 to 75%	–
C[C@@H]1CC(COC(=O)C2CCC2)OC2[C@H]1[C@@]1(C)CC[C@@]34C[C@@]35CC[C@H](O[C@H]3CN(C6COC6)CCO3)C(C)(C)[C@@H]5CCC4[C@]1(C)[C@H]2O (stereo partly shown)	25 to 75%	< 25%	< 25%	–
CC(=O)OC(C)(C)C1C[C@@H](C)[C@H]2C(O1)[C@H](O)[C@@]1(C)C3CC[C@H]4C(C)(C)C(OC(=O)N5CCOCC5)CC[C@@]45C[C@@]35CC[C@]21C (stereo partly shown)	25 to 75%	< 25%	< 25%	–
C[C@@H]1CC([C@H](Oc2ncccn2)C(C)(C)O)OC2C1[C@@]1(C)CC[C@@]34C[C@@]35CCC(O)C(C)(C)[C@@H]5CCC4[C@]1(C)[C@H]2O (stereo partly shown)	25 to 75%	25 to 75%	25 to 75%	–
